# Compound: CC(C)C[C@H](NC(=O)[C@H](CCc1ccccc1)NC(=O)CN1CCOCC1)C(=O)N[C@@H](Cc1ccccc1)C(=O)N[C@@H](CC(C)C)C(=O)[C@@]1(C)CO1 [Carfilzomib] + Cc1nc(Nc2ncc(C(=O)Nc3c(C)cccc3Cl)s2)cc(N2CCN(CCO)CC2)n1 [Dasatinib] (partner 0.075 µM)
# Assay: relative viability (nuclei count vs DMSO), 5 days (fraction); higher = more cells survive
# Conditions: first compound 0.001 µM
# Procedure, shortened: (§1)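 Relative viability is defined as nuclei in treated wells over nuclei in vehicle wells. Duplicate plates were run and medians reported. Lung cancer cell lines in 1536-well plates were dosed by pin tool one day after seeding, with one drug or with a fixed anchor-drug dose plus five library-drug doses (not always all listed) in √10 steps, and nuclei were counted after 5 days.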
row,Cell Line,relative viability
1,201T,0.51
2,A-427,0.776
3,ABC-1,0.521
4,BEN,0.294
5,CAL-12T,0.321
6,COR-L23,0.478
7,COR-L 105,0.409
8,ChaGo-K-1,0.546
9,EKVX,0.49
10,EMC-BAC-2,0.327
11,EPLC-272H,0.379
12,H3255,0.356
13,HARA,0.324
14,HCC-15,0.609
15,HCC-78,0.228
16,HCC-366,0.624
17,HCC-827,0.3
18,HOP-62,0.618
19,LC-2-ad,0.475
20,LCLC-97TM1,0.776
21,LCLC-103H,0.343
22,LK-2,0.299
23,LOU-NH91,0.523
24,LU99A,0.533
25,NCI-H727,0.386
26,NCI-H1563,0.431
27,NCI-H1623,0.509
28,NCI-H2228,0.539

# Same assay, conditions: first compound 0.003162 µM
row,Cell Line,relative viability
1,201T,0.61
2,A-427,0.853
3,ABC-1,0.504
4,BEN,0.328
5,CAL-12T,0.484
6,COR-L23,0.523
7,COR-L 105,0.393
8,ChaGo-K-1,0.591
9,EKVX,0.342
10,EMC-BAC-2,0.363
11,EPLC-272H,0.407
12,H3255,0.431
13,HARA,0.312
14,HCC-15,0.654
15,HCC-78,0.459
16,HCC-366,0.727
17,HCC-827,0.306
18,HOP-62,0.655
19,LC-2-ad,0.711
20,LCLC-97TM1,0.89
21,LCLC-103H,0.503
22,LK-2,0.349
23,LOU-NH91,0.618
24,LU99A,0.688
25,NCI-H727,0.333
26,NCI-H1563,0.463
27,NCI-H1623,0.571
28,NCI-H2228,0.526

# Same assay, conditions: first compound 0.01 µM
row,Cell Line,relative viability
1,201T,0.643
2,A-427,0.597
3,ABC-1,0.196
4,BEN,0.299
5,CAL-12T,0.509
6,COR-L23,0.425
7,COR-L 105,0.319
8,ChaGo-K-1,0.585
9,EKVX,0.597
10,EMC-BAC-2,0.35
11,EPLC-272H,0.215
12,H3255,0.486
13,HARA,0.32
14,HCC-15,0.673
15,HCC-78,0.323
16,HCC-366,0.629
17,HCC-827,0.239
18,HOP-62,0.499
19,LC-2-ad,0.796
20,LCLC-97TM1,0.837
21,LCLC-103H,0.518
22,LK-2,0.229
23,LOU-NH91,0.564
24,LU99A,0.512
25,NCI-H727,0.491
26,NCI-H1563,0.488
27,NCI-H1623,0.599
28,NCI-H2228,0.442

# Same assay, conditions: first compound 0.03162 µM
row,Cell Line,relative viability
1,201T,0.593
2,A-427,0.0935
3,ABC-1,0.172
4,BEN,0.298
5,CAL-12T,0.174
6,COR-L23,0.0606
7,COR-L 105,0.235
8,ChaGo-K-1,0.335
9,EKVX,0.478
10,EMC-BAC-2,0.256
11,EPLC-272H,0.0812
12,H3255,0.339
13,HARA,0.0493
14,HCC-15,0.3
15,HCC-78,0.435
16,HCC-366,0.705
17,HCC-827,0.374
18,HOP-62,0.0996
19,LC-2-ad,0.475
20,LCLC-97TM1,0.774
21,LCLC-103H,0.362
22,LK-2,0.154
23,LOU-NH91,0.273
24,LU99A,0.278
25,NCI-H727,0.216
26,NCI-H1563,0.505
27,NCI-H1623,0.271
28,NCI-H2228,0.0721

# Same assay, conditions: first compound 0.1 µM
row,Cell Line,relative viability
1,201T,0.522
2,A-427,0.107
3,ABC-1,0.324
4,BEN,0.203
5,CAL-12T,0.108
6,COR-L23,0.0642
7,COR-L 105,0.167
8,ChaGo-K-1,0.203
9,EKVX,0.214
10,EMC-BAC-2,0.256
11,EPLC-272H,0.0631
12,H3255,0.355
13,HARA,0.0578
14,HCC-15,0.0867
15,HCC-78,0.2
16,HCC-366,0.173
17,HCC-827,0.273
18,HOP-62,0.0979
19,LC-2-ad,0.256
20,LCLC-97TM1,0.397
21,LCLC-103H,0.299
22,LK-2,0.17
23,LOU-NH91,0.281
24,LU99A,0.152
25,NCI-H727,0.174
26,NCI-H1563,0.367
27,NCI-H1623,0.642
28,NCI-H2228,0.0819

# Compound: C[C@@H](Oc1cc(-c2cnn(C3CCNCC3)c2)cnc1N)c1c(Cl)ccc(F)c1Cl [Crizotinib] + Nc1ncn([C@H]2C[C@H](O)[C@@H](CO)O2)c(=O)n1 [Decitabine] (partner 2 µM)
# Assay: as above
# Conditions: first compound 0.01 µM
# Procedure, shortened: as §1
row,Cell Line,relative viability
1,201T,0.803
2,A549,0.213
3,A-427,0.54
4,ABC-1,1.09
5,BEN,0.687
6,COR-L23,0.346
7,COR-L 105,0.583
8,ChaGo-K-1,0.485
9,EKVX,0.29
10,EMC-BAC-2,0.96
11,EPLC-272H,0.339
12,H3255,0.701
13,HARA,0.489
14,HCC-15,0.663
15,HCC-44,0.959
16,HCC-78,0.754
17,HCC-366,0.31
18,HCC-827,0.333
19,HOP-62,0.174
20,LC-2-ad,0.846
21,LCLC-97TM1,0.214
22,LCLC-103H,0.672
23,LK-2,0.293
24,LOU-NH91,0.832
25,LU99A,0.823
26,NCI-H727,0.763

# Same assay, conditions: first compound 0.03162 µM
row,Cell Line,relative viability
1,201T,0.848
2,A549,0.216
3,A-427,0.561
4,BEN,0.61
5,COR-L23,0.463
6,COR-L 105,0.675
7,ChaGo-K-1,0.488
8,EKVX,0.339
9,EMC-BAC-2,0.921
10,EPLC-272H,0.375
11,H3255,0.576
12,HARA,0.524
13,HCC-15,0.71
14,HCC-44,0.943
15,HCC-78,0.759
16,HCC-366,0.294
17,HCC-827,0.241
18,HOP-62,0.22
19,LC-2-ad,0.896
20,LCLC-97TM1,0.235
21,LCLC-103H,0.759
22,LK-2,0.22
23,LOU-NH91,0.832
24,LU99A,0.803
25,NCI-H727,0.769
26,NCI-H1648,0.498

# Same assay, conditions: first compound 0.1 µM
row,Cell Line,relative viability
1,201T,0.871
2,A549,0.324
3,A-427,0.526
4,ABC-1,1.02
5,BEN,0.761
6,COR-L23,0.454
7,COR-L 105,0.658
8,ChaGo-K-1,0.528
9,EKVX,0.323
10,EMC-BAC-2,1.01
11,EPLC-272H,0.366
12,H3255,0.616
13,HARA,0.514
14,HCC-15,0.657
15,HCC-78,0.669
16,HCC-366,0.406
17,HCC-827,0.328
18,HOP-62,0.23
19,LC-2-ad,0.809
20,LCLC-97TM1,0.212
21,LCLC-103H,0.737
22,LK-2,0.289
23,LOU-NH91,0.846
24,LU99A,0.872
25,NCI-H727,0.836
26,NCI-H1648,0.401

# Same assay, conditions: first compound 0.3162 µM
row,Cell Line,relative viability
1,201T,0.845
2,A549,0.16
3,BEN,0.632
4,COR-L23,0.386
5,COR-L 105,0.629
6,ChaGo-K-1,0.463
7,EKVX,0.336
8,H3255,0.558
9,HARA,0.4
10,HCC-15,0.527
11,HCC-44,0.844
12,HCC-78,0.593
13,HCC-827,0.306
14,HOP-62,0.197
15,LCLC-97TM1,0.248
16,LCLC-103H,0.754
17,LK-2,0.236
18,LOU-NH91,0.759
19,LU99A,0.784
20,NCI-H727,0.763
21,NCI-H1648,0.488

# Same assay, conditions: first compound 1 µM
row,Cell Line,relative viability
1,201T,0.893
2,A549,0.257
3,A-427,0.593
4,ABC-1,1.15
5,BEN,0.647
6,COR-L23,0.392
7,COR-L 105,0.713
8,ChaGo-K-1,0.536
9,EKVX,0.337
10,EMC-BAC-2,0.967
11,EPLC-272H,0.436
12,H3255,0.653
13,HARA,0.531
14,HCC-15,0.599
15,HCC-44,0.915
16,HCC-78,0.661
17,HCC-366,0.36
18,HCC-827,0.321
19,HOP-62,0.202
20,LC-2-ad,0.81
21,LCLC-97TM1,0.303
22,LCLC-103H,0.723
23,LK-2,0.284
24,LOU-NH91,0.759
25,NCI-H727,0.796
26,NCI-H1648,0.452

# Compound: C[C@@H](Oc1cc(-c2cnn(C3CCNCC3)c2)cnc1N)c1c(Cl)ccc(F)c1Cl [Crizotinib] + O=C(c1cc(Cc2n[nH]c(=O)c3ccccc23)ccc1F)N1CCN(C(=O)C2CC2)CC1 [Olaparib] (partner 8 µM)
# Assay: as above
# Conditions: first compound 0.01 µM
# Procedure, shortened: as §1
row,Cell Line,relative viability
1,201T,0.776
2,A549,0.38

# Reference: the supplement of paper PMC10307832
